Measurements as given in patent US11696903B2, “Compounds and methods for scavenging dicarbonyl electrophiles” (VANDERBILT UNIVERSITY, priority 2019, dated 2023).

Columns and labels:
[1] = tested on: gastric uptake of 18F-NaF (tumor marker) and 18F-FDG (inflammation marker); assay: PET/CT imaging with 18F-FDG and 18F-NaF; format: in vivo; details: Hp-infected mice, EtSA
Experimental: (§1) As discussed further in the Examples, the human gastric epithelial cell line AGS was infected with Hp PMSS1±10 mM EtSA. FVB/N insulin-gastrin (INS-GAS) mice and Mongolian gerbils were infected for 8 wk with Hp PMSS1 and 7.13, respectively; EtSA (0.75% in water) was given to animals beginning one wk post-infection. Lys-LG adducts, a marker of electrophile reactions, and EtSA were quantified by LC/EST/MS/MS. Histology was analyzed on H&E staining. DNA damage was evaluated by pH2AX staining. Hp colonization was quantified by culture. Mucosal immune responses were determined by RNA profiling and by Luminex assay. Mice were imaged using PET/CT with ^18F-FDG (inflammation marker) and ^18F—NaF (tumor marker).

[2] = Reaction rate of scavengers with dicarbonyl electrophiles / LG relative to lysine; details: faster than lysine
Excerpt: Under conditions such as inflammation and/or accumulated mutations, epithelial cells and adjacent immune cells express genes encoding enzymes involved in carcinogenesis, such as prostaglandin-endoperoxide synthase (PGHS2; COX2), NADPH oxidases, and spermine oxidase. The products of these enzymes (prostaglandins, O2D, and H2O2 plus 3-aminopropanal) lead to formation of dicarbonyl electrophiles: levuglandins (LGs), malondialdehyde (MDA), 4-oxo-nonenal (4-O NE), and acrolein. Electrophiles may lead to immune dysfunction and neoplastic risk by forming adducts with proteins and DNA11-15. However, the role of these reactive aldehydes in colon carcinogenesis is previously unknown. The present inventors have discovered that the level of LG-protein adducts is increased in the colon tissues of i) human ulcerative colitis (UC), colitis-associated carcinogenesis (CAC), and CRC; ii) mice treated with azoxymethane-dextran sulfate sodium (AOM-DSS), a model of CAC; and iii) transgenic mice with a tamoxifen-inducible disruption of Apc using the colon-specific, caudal type homeobox 2 (CDX2) Cre (CDX2P-CreERT2;Apcff), which recapitulates sporadic/genetically-driven CRC. […]

[3] = tested on: lysyl-LG adducts; assay: Lysyl-LG adducts in gastric tissues of H. pylori-infected mice (LC/ESI/MS/MS); format: in vivo; details: EtSA 0.75% in water from one wk post-infection, 8 wk infection
Experimental: FIGS. 15A, 15B, and 15C are graphs showing C57BL/6 (A) or INS-GAS mice (B) were infected for 8 weeks with H. pylori PMSS1. Lysyl-LG adducts were measured in the gastric tissues by LC/ESI/MS/MS. *P<0.05. (C) Lysyl-LG adducts concentration was determined in AGS cells infected (plain bars) or not (open bars) with H. pylori PMSS1 for 24 h, in the presence or absence of EtSA. *P<0.05 vs. uninfected cells. § P<0.05 vs. infected cells without EtSA.
FIG. 17 is a graph showing reduction in the concentration of lysyl-levuglandin adducts in the stomachs of H. pylori infected mice treated with 2-hydroxybenzylamine for 8 weeks.
as §1, with “marker). […]” for “marker).”

What does the source list for `CCc1ccc(O)c(CN)c1` [EtHOBA, 5-ethyl-2-hydroxybenzylamine]?
gastric uptake of the tumor marker 18F-NaF [1]: decreased; uptake of the inflammation marker 18F-FDG [1]: not modified; rate of reaction with dicarbonyl electrophiles [2]: 3 orders of magnitude; Lys-LG adducts in infected mice [3]: completely inhibited
